Columns and labels:
[1] = tested on: rat tracheal rings; experiment: Histamine-induced contraction of isolated rat tracheal rings; type: cell-based
Description: (§1) Male Wistar rats 300-350 g were sacrificed with a phenobarbital sodium overdose given by intraperitoneal route. The thoracic cavity was exposed, the neck was dissected, and the trachea was removed 1 mm above the tracheal bifurcation and 1 mm below the thyroid cartilage. The sample was submerged in cold Krebs-Henseleit solution bubbled with 95% 02 and 5% CO2, and 3 mm-thick rings were cut. Each ring was placed in an isolated organ chamber, with its bottom anchored by means of a stainless-steel hook and another hook connected to a tension transducer. The chamber was then filled with Krebs-Henseleit solution at 36° C. bubbled with 95% 02 and 5% CO2, pH 7.4±0.5. […]
(§2) The antagonist's effects to their own agonists were analyzed using dose-response curves of the agonists in tracheal rings incubated with different antagonists' concentrations. […]
(§3) The half maximal effective concentration (EC50) of each dose-response curve of the analyzed agonists was obtained using the sigmoid model, wherein: y=a+(b−a)/(1+10^(logx0-x)*x p)). […]
(§4) Data are presented as mean±standard deviation of 2 rings obtained from each of the tracheas of 5 rats. Data were analyzed with the one-way ANOVA test with a Dunett's post-test. EC50's were determined by means of the sigmoid model and the 40 percent of effects was obtained using a linear regression. The t and T values were determined based on a t-values table.

[2] = cited from earlier work; for bioavailability / time to maximum plasma concentration: oral administration
[3] = cited from earlier work
[4] = tested on: rat tracheal rings; experiment: LTD4-induced contraction of isolated rat tracheal rings; type: cell-based
Description: as §1, with “.” for “Male Wistar rats 300-350 g were sacrificed with a phenobarbital sodium overdose given by intraperitoneal route.”, “7.4±0.5. Two washes were performed, and a 1.5 g load was applied to each ring and were left to rest for 60 minutes.” for “7.4±0.5.”
as §2, §3, §4

Structure (SMILES): CN1CCC(=C2c3ccccc3CC(=O)c3sccc32)CC1 [ketotifen, 4,9-Dihydro-4-(1-methyl-4-piperidylidene)-10H-benzo(4,5)cyclohepta[1,2-b]thiophen-10-one]
- blocking of the contraction induced by the highest histamine concentration ([1]; 100 μM ketotifen): 65%
- excreted in urine as metabolites ([2]; first 48 hours): 60 to 70%
- excreted unaltered in urine ([2]; first 48 hours): Approximately 1%
- first pass effect of the liver metabolism ([2]; glucuronidation and demethylation): approximately 50%
- long half-life (biphasic elimination) ([2]; in vivo): 21 h
- short half-life (biphasic elimination) ([2]; in vivo): 3 to 5 h
- therapeutic plasma concentrations ([2]; in vivo): 1 to 4 µg/mL
- bioavailability [2]: approximately 50%
- time to maximum plasma concentration [2]: 2 to 4 h
- fecal excretion ([2]; up to): 30 to 40%
- plasma protein binding [3]: 75%

Structure (SMILES): CCCCC/C=C\C\C=C/C=C/C=C/[C@@H](SC[C@H](N)C(=O)NCC(=O)O)[C@@H](O)CCCC(=O)O [LTD4, leukotriene D4]
- EC50 ([4]; cumulative administration, normalised to acetylcholine 0.1 mM = 100%, read-out: EC50 of concentration-dependent contraction of rat tracheal rings): 42.6 nM

Structure (SMILES): CC(C)(O)c1ccccc1CC[C@@H](SCC1(CC(=O)O)CC1)c1cccc(/C=C/c2ccc3ccc(Cl)cc3n2)c1 [montelukast, 1-[[[(1R)-1-[3-[(1E)-2-(7-chloro-2-quinolinyl)ethenyl]phenyl]-3-[2-(1-hydroxy-1-methylethyl)phenyl]propyl]thio]methyl] cyclopropaneacetic acid]
- blocking of the contraction induced by the highest LTD4 concentration ([4]; 30 μM montelukast): 75%
- biological half-life ([2]; in vivo): 2.7-5.5 hours
- bioavailability [2]: 64%
- time to maximum plasma concentration [2]: 2 to 4 h
- plasma protein binding [3]: 99%

Structure (SMILES): NCCc1c[nH]cn1 [histamine, 2-(4-imidazol) ethylamine]
- EC50 ([1]; Rattus norvegicus, cumulative administration, normalised to acetylcholine 0.1 mM = 100%, read-out: EC50 of concentration-dependent contraction of rat tracheal rings): 3.54 µM

From US20220031687A1, “SYNERGIC PHARMACEUTICAL COMBINATION OF A LEUKOTRIENE-RECEPTOR ANTAGONIST AND AN INVERSE AGONIST OF HISTAMINE HI” (priority 2018, published 2022)
